Assay results from patent publication US11746116B2, “Antibiotic resistance breakers” (KING'S COLLEGE LONDON, priority 2017, dated 2023).
In brackets after ≈: the same amount, converted by molar mass. Several values for one entry are separate records, joined by “and”; a condition that tells them apart may be missing. Equal values may be shown once.

Columns and labels:
[1] = Single dose pharmacokinetics study, oral route; settings: 20 mg/kg
[2] = biological target: Safetyscreen44 off target panel (Homo sapiens, UniProt Q12809); test: Safetyscreen44, potential off target toxicity (Table 27)
[3] = biological target: Safetyscreen44 off target panel (Homo sapiens, UniProt P11229)
[4] = biological target: Safetyscreen44 off target panel (Homo sapiens, UniProt P08588)
[5] = biological target: Safetyscreen44 off target panel (Homo sapiens, UniProt P31645)
[6] = biological target: Safetyscreen44 off target panel (Homo sapiens, UniProt P28223)
[7] = biological target: Safetyscreen44 off target panel (Homo sapiens, UniProt P20309)
[8] = biological target: Safetyscreen44 off target panel (Rattus norvegicus, UniProt P28564)
[9] = biological target: Safetyscreen44 off target panel (Rattus norvegicus, UniProt P34975)
[10] = biological target: Safetyscreen44 off target panel (Homo sapiens, UniProt P06239)
[11] = biological target: Safetyscreen44 off target panel (Homo sapiens, UniProt P35372)
[12] = biological target: Safetyscreen44 off target panel (Homo sapiens, UniProt P23219)
[13] = biological target: Safetyscreen44 off target panel (Homo sapiens, UniProt P21554)
[14] = tested on: Safetyscreen44 off target panel
[15] = biological target: Safetyscreen44 off target panel (Homo sapiens, UniProt P41595)
[16] = biological target: Safetyscreen44 off target panel (Homo sapiens, UniProt Q14432)
[17] = in vivo; settings: male, CD-1 (ICR), mouse, iv, 5 mg/kg
[18] = biological target: CYP2D6 (Homo sapiens, UniProt P10635); test: in vitro; settings: microsomes, % inhibition, CYP2D6 inhibition (HLM, dextromethorphan substrate)
[19] = biological target: CYP2C8 (Homo sapiens, UniProt P10632); test: in vitro; settings: microsomes, % inhibition, CYP2C8 inhibition (HLM, amodiaquine substrate)
[20] = biological target: CYP2C19 (Homo sapiens, UniProt P33261); test: in vitro; settings: microsomes, % inhibition, CYP2C19 inhibition (HLM, omeprazole substrate)
[21] = biological target: CYP2C9 (Homo sapiens, UniProt P11712); test: in vitro; settings: microsomes, % inhibition, CYP2C9 inhibition (HLM, diclofenac substrate)
[22] = tested on: CYP3A; test: in vitro; settings: human, microsomes, % inhibition
[23] = tested on: CYP1A (printed CYPiA); test: in vitro; settings: human, microsomes, % inhibition, CYPiA inhibition (HLM, phenacetin substrate)
[24] = biological target: CYP2B6 (Homo sapiens, UniProt P20813); test: in vitro; settings: microsomes, % inhibition, CYP2B6 inhibition (HLM, bupropion substrate)
[25] = tested on: M6; test: MIC, microdilution broth method; format: cell-based
[26] = tested on: Ab17978; test: MIC, microdilution broth method; format: cell-based
[27] = tested on: VRE12201; test: MIC, microdilution broth method; format: cell-based, Enterococcus faecalis
[28] = tested on: MSSA9144; test: MIC, microdilution broth method; format: cell-based, Staphylococcus aureus
[29] = tested on: VSE775; test: MIC, microdilution broth method; format: cell-based, Enterococcus faecalis; set-up: MIC, VSE775: unit not given beside the values
[30] = tested on: PA01; test: MIC, microdilution broth method; format: cell-based, Pseudomonas aeruginosa
[31] = tested on: KP13368; test: MIC, microdilution broth method; format: cell-based
[32] = tested on: multidrug resistant strains; test: Reserpine growth assay in several multidrug resistant strains (FIG. 27); format: cell-based; settings: compared to ML-83-009 or levofloxacin
Experimental: Reserpine was added at a final concentration of 10 μg/mL (made up at 40 μg/mL in TSB, 50 μL per well). The bacteria were added at an OD of 0.01 in TSB (100 μL/well). The plate was a normal clear plate as used for MICs. OD was read every 30 minutes for 9 hours (the literature states 7 hours, but this is strain-dependent).

[33] = tested on: EMRSA16; test: MIC, microdilution broth method; format: cell-based, Staphylococcus aureus; settings: for MIC, EMRSA16: in µg/mL
[34] = male, CD-1 (ICR), mouse, in vivo, po
[35] = ESKAPE panel, Gram-negative, in µg/mL
[36] = ESKAPE panel, Gram-positive, in µg/mL

Sequence of Safetyscreen44 off target panel (Homo sapiens, UniProt P28223) (P28223 whole entry): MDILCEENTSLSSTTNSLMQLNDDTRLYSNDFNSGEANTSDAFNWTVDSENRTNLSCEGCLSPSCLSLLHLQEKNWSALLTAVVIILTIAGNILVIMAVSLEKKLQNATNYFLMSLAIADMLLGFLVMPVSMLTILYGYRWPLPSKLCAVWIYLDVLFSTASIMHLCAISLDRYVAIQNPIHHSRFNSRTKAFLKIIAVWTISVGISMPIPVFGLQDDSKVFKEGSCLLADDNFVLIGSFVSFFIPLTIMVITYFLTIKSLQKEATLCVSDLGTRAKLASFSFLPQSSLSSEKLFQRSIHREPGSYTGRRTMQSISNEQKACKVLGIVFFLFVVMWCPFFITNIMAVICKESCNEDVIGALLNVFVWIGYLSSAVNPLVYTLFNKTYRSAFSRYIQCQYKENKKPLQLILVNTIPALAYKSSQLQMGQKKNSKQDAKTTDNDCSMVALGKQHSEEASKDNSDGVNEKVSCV
Sequence of Safetyscreen44 off target panel (Homo sapiens, UniProt P23219) (P23219 24-599): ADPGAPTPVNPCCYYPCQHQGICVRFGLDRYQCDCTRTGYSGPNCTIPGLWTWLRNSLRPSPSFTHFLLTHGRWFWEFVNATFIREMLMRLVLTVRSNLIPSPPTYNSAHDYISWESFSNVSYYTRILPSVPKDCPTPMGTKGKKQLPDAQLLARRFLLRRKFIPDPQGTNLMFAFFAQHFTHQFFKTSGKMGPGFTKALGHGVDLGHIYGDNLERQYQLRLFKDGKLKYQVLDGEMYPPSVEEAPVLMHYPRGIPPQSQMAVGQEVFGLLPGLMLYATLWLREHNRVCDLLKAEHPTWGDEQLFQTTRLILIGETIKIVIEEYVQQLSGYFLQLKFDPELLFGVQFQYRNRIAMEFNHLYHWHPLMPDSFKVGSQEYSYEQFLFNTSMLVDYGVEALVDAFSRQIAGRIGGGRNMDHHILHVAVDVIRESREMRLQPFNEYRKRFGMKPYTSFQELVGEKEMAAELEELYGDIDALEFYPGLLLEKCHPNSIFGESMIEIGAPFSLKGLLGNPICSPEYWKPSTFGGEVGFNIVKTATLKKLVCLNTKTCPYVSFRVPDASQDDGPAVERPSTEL
Sequence of Safetyscreen44 off target panel (Homo sapiens, UniProt Q14432) (Q14432 whole entry): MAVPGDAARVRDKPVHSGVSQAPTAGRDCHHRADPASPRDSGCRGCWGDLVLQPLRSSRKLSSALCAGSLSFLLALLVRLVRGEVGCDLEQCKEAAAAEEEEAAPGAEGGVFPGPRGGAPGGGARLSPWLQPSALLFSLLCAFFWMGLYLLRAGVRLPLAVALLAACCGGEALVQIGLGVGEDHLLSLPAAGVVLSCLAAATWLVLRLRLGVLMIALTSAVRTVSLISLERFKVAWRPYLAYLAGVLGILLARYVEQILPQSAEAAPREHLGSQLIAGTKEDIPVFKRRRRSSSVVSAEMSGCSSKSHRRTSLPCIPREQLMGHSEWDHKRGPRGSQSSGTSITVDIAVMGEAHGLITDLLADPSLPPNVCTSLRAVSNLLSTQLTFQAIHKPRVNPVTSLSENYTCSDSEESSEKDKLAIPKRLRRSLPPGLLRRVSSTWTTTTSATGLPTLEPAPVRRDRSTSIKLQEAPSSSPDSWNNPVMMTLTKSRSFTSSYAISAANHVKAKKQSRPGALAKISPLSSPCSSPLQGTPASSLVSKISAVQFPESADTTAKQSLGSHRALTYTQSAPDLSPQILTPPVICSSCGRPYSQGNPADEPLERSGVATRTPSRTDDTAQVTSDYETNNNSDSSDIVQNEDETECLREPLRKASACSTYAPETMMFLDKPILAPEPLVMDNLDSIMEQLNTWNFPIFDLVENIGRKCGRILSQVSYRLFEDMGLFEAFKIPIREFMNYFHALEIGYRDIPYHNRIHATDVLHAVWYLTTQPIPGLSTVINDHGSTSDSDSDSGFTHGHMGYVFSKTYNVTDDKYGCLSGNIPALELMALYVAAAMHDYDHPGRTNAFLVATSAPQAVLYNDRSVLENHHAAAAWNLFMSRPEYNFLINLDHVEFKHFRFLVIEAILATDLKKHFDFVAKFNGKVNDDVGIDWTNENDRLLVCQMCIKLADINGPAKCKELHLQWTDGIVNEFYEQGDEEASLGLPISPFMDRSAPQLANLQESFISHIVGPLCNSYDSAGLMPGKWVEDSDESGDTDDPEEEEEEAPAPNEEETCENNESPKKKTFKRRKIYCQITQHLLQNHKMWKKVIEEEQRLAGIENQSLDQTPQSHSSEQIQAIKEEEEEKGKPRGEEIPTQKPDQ
Sequence of CYP2B6 (P20813 whole entry): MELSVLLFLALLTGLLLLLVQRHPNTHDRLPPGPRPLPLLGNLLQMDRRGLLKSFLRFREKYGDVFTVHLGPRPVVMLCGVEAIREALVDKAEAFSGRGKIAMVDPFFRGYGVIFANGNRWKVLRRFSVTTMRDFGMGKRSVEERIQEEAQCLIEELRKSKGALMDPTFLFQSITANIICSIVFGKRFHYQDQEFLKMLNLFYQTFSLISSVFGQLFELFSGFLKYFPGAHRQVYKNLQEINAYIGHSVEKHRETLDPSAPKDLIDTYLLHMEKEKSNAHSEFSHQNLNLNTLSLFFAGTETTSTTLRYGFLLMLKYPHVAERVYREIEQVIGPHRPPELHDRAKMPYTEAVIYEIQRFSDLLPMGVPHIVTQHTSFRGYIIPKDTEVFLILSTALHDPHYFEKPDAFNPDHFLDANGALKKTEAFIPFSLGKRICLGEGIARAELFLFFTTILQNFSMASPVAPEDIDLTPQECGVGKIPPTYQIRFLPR
Sequence of Safetyscreen44 off target panel (Homo sapiens, UniProt P35372) (P35372 whole entry): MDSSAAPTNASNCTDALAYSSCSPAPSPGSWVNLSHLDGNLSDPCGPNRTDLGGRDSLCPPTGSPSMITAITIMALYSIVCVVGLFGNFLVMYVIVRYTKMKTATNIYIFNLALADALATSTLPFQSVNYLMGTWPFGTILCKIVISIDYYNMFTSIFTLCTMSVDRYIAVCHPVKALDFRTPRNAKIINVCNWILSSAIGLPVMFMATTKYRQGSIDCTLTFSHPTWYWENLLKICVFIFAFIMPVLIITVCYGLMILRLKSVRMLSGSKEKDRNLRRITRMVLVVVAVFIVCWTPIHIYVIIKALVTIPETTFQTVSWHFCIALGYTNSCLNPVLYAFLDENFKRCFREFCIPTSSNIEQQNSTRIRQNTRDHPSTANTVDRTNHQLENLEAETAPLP
Sequence of CYP2C19 (P33261 whole entry): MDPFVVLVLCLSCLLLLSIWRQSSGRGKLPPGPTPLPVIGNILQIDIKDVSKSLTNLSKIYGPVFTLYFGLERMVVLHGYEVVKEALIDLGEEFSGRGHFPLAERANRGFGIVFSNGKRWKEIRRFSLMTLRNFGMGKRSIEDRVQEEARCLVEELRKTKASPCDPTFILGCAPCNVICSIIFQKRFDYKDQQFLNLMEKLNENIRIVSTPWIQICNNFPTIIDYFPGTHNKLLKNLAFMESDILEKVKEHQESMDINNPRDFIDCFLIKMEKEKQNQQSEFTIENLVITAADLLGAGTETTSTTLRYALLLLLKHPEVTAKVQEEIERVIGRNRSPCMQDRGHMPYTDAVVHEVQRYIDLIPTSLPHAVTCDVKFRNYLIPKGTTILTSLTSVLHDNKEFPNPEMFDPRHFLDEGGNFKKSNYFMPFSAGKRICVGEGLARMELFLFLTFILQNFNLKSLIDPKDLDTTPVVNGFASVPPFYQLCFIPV
Sequence of Safetyscreen44 off target panel (Rattus norvegicus, UniProt P34975) (P34975 whole entry): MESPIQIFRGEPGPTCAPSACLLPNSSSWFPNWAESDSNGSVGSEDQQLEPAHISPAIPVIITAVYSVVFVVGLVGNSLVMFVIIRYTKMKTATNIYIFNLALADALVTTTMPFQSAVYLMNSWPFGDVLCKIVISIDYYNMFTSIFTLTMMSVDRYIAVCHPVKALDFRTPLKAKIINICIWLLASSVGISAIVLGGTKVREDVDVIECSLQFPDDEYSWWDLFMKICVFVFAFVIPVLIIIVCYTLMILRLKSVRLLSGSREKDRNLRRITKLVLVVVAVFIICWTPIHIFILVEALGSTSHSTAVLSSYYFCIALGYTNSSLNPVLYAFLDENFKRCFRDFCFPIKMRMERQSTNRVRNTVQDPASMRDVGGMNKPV
Sequence of Safetyscreen44 off target panel (Homo sapiens, UniProt P21554) (P21554 whole entry): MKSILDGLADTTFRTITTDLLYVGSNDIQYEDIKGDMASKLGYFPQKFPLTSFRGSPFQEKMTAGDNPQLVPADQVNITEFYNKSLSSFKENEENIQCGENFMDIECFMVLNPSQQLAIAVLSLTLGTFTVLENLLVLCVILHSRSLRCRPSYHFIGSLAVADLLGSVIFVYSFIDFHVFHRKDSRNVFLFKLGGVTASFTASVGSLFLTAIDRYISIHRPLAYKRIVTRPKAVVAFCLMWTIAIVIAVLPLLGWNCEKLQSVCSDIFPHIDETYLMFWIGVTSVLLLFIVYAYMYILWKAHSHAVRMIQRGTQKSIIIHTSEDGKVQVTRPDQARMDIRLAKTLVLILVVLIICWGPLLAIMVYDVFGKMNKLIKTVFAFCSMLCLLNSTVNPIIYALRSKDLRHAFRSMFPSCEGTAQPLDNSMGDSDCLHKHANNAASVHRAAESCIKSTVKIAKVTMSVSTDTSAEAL
Sequence of Safetyscreen44 off target panel (Homo sapiens, UniProt P08588) (P08588 whole entry): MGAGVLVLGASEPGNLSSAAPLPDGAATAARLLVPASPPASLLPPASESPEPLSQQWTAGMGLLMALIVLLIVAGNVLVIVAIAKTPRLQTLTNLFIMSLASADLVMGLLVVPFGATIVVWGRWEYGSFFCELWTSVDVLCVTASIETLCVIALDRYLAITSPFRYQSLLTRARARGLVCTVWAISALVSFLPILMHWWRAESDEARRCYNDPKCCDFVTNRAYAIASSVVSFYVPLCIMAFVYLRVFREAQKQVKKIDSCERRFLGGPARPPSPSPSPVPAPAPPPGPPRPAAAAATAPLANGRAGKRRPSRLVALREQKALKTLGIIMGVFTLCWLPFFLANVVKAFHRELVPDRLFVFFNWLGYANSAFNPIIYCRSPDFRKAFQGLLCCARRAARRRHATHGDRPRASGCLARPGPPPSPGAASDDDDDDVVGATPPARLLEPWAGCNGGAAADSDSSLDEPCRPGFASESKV

SMILES: C[C@H]1COc2c(N3CC[C@@H](Nc4ncccn4)C3)c(F)cc3c(=O)c(C(=O)O)cn1c23 [KSN-82-L22]
- Clast ([1]; PO, Male CD1 mouse, blood, Mean): 628 ng/mL
- AUC [1, 34]: 8230 ng·h/mL and 19.3 µM·h
- AUC(0-inf) [1, 34]: 31 µM·h
- Cmax [1, 34]: 4.01 µM and 2960 ng/mL
- Tmax [1, 34]: 1 h
- % inhibition, Potassium Channel hERG (human)-[3H] Dofetilide [2]: −0.2461%
- % inhibition, M1 (h) (antagonist radioligand) [3]: 3.129%
- % inhibition, beta 1 (h) (agonist radioligand) [4]: 1.921%
- % inhibition, 5-HT transporter (h) (antagonist radioligand) [5]: −16.9663%
- % inhibition, 5-HT2A (h) (agonist radioligand) [6]: −8.881%
- % inhibition, M3 (h) (antagonist radioligand) [7]: 2.273%
- % inhibition, 5-HT1B (antagonist radioligand) [8]: −16.7063%
- % inhibition, kappa (KOP) (agonist radioligand) [9]: 27.3513%
- % inhibition, Lck kinase (h) [10]: −2.891%
- % inhibition, mu (MOP) (h) (agonist radioligand) [11]: 6.535%
- % inhibition, COX1 (h) [12]: 30.3185%
- % inhibition, CB1 (h) (agonist radioligand) [13]: 1.857%
- % inhibition, BZD (central) (agonist radioligand) [14]: −44.8289%
- % inhibition, Ca2+ channel (L, dihydropyridine site) (antagonist radioligand) [14]: 6.049%
- % inhibition, D2S (h) (agonist radioligand) [14]: −7.807%
- % inhibition, NMDA (antagonist radioligand) [14]: 12.6124%
- % inhibition, Na+ channel (site 2) (antagonist radioligand) [14]: 23.6539%
- % inhibition, PDE4D2 (h) [14]: 14.8003%
- % inhibition, alpha 1A (h) (antagonist radioligand) [14]: 11.5312%
- % inhibition, 5-HT2B (h) (agonist radioligand) [15]: 5.374%
- % inhibition, PDE3A (h) [16]: 7.502%
- Vd [17]: 1 to 4 L/kg
- inhibition at 10 µM [18]: 0%
- inhibition at 10 µM [19]: 3.05%
- inhibition at 10 µM [20]: 0.632%
- inhibition at 10 µM [21]: 12.8%
- inhibition at 10 µM ([22]; CYP3A inhibition (HLM, midazolam substrate)): 25.2%
- inhibition at 10 µM ([22]; CYP3A inhibition (HLM, testosterone substrate)): 6.52%
- inhibition at 10 µM [23]: 9.56%
- inhibition at 10 µM [24]: -1.32%

SMILES: Cc1cc(C)nc(N[C@@H]2CCN(c3c(F)cc4c(=O)c(C(=O)O)cn5c4c3OC[C@@H]5C)C2)n1 [KSN-BL7, (S)-10-((R)-3-((4,6-dimethylpyrimidin-2-yl)amino)pyrrolidin-1-yl)-9-fluoro-3-methyl-7-oxo-2,3-dihydro-7H-[1,4]oxazino[2,3,4-ij]quinoline-6-carboxylic acid]
- MIC, M6 [25, 35]: 2
- MIC ([25]; Klebsiella pneumoniae): 2 µg/mL (≈ 4.41 µM)
- MIC ([26]; Acinetobacter baumannii): ≤ 0.125 µg/mL
- MIC, Ab17978 [26, 35]: ≤0.125
- MIC, VRE12201 [27, 36]: 0.0313
- MIC ([27]; Enterococcus faecalis): 0.03 µg/mL (≈ 0.0662 µM)
- MIC, MSSA9144 [28, 36]: ≤0.0039
- MIC ([28]; Staphylococcus aureus): ≤ 0.0039 µg/mL
- MIC, VSE775 ([29]; ESKAPE panel, Gram-positive): 0.0625
- MIC ([29]; Enterococcus faecalis): 0.06 µg/mL (≈ 0.132 µM)
- MIC, PA01 [30, 35]: 8
- MIC ([30]; Pseudomonas aeruginosa): 8 µg/mL (≈ 17.6 µM)
- MIC, KP13368 ([31]; ESKAPE panel, Gram-negative): 16 µg/mL (≈ 35.3 µM)
- MIC ([31]; Klebsiella pneumoniae): 16 µg/mL (≈ 35.3 µM)
- efflux from the bacteria (reserpine growth assay) [32]: reduced efflux
- MIC, EMRSA16 ([33]; EMRSA16 (Table 16, role of the terminal pyrimidine ring)): 0.25-0.5
- MIC, EMRSA16 ([33]; ESKAPE panel, Gram-positive): 0.25
- MIC ([33]; Staphylococcus aureus): 0.25 µg/mL (≈ 0.551 µM)
